Consider 29 compounds from ChEMBL document CHEMBL1125324, “Development of a novel class of cyclic hexapeptide oxytocin antagonists based on a natural product” (J Med Chem, 1992).

*1 amine or outer side, *2 acyl side, *3 side chain or, on linkers, in order; H or OH if unused. Where a SMILES comes first, the peptide text is derived from it. [ ]: non-standard residue; d: D form. X1 = C=CCN([C@H](Cc1ccccc1)C(=O)[*:2])[*:1]; Piz(1,6-dehydro) = O=C(O)[C@@H]1CCC=NN1; dPiz(1,6-dehydro) = O=C(O)[C@H]1CCC=NN1; d1Nal = N[C@H](Cc1cccc2ccccc12)C(=O)O; dNMeH = CN[C@H](Cc1c[nH]cn1)C(=O)O; dNMeF = CN[C@H](Cc1ccccc1)C(=O)O; Pip = O=C(O)[C@@H]1CCCCN1; dPip = O=C(O)[C@H]1CCCCN1; NMeA = CN[C@@H](C)C(=O)O; Nle = CCCC[C@H](N)C(=O)O; Orn = NCCC[C@H](N)C(=O)O; dNMeA = CN[C@H](C)C(=O)O

Experiment [1] deals with Vasopressin V1a receptor (Rattus norvegicus) (UniProt P30560). The experiment can be described thus: Displacement of [3H]arginine vasopressin from rat liver (AVP-V1a site) at 10 uM.
Experiment [2] deals with Vasopressin V2 receptor (Rattus norvegicus) (UniProt Q00788). The experiment can be described thus: Displacement of [3H]arginine vasopressin from rat kidney medullary (AVP-V2 site) at 10 uM. In kind it is tissue-based.
The target of a further experiment is T1, Oxytocin receptor (Rattus norvegicus, UniProt P70536).
T1 sequence (P70536 whole entry): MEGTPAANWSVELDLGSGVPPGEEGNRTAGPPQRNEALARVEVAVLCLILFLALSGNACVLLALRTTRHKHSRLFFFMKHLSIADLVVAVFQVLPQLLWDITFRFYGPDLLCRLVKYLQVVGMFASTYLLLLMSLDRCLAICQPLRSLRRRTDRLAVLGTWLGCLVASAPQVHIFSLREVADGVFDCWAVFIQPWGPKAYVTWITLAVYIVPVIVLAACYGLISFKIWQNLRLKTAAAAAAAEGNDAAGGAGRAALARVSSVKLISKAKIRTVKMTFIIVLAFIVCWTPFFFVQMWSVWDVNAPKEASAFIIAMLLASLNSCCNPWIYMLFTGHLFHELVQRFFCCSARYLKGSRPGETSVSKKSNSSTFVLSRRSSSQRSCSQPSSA
The experiment can be described thus: Concentration required to displace 50% of [3H]oxytocin from rat uterine receptor.

A further experiment concerns the target Vasopressin V2 receptor (Rattus norvegicus, UniProt Q00788). The experiment can be described thus: Inhibition of [3H]arginine vasopressin binding to AVP-V2 site in rat kidney medulla. In kind it is tissue-based.
The next experiment deals with Vasopressin V1a receptor (Rattus norvegicus, UniProt P30560). The experiment can be described thus: Concentration required to displace 50% of [3H]arginine vasopressin from rat liver arginine vasopressin 1A (AVP-V1a) site.
Chain of Vasopressin V1a receptor (P30560 whole entry): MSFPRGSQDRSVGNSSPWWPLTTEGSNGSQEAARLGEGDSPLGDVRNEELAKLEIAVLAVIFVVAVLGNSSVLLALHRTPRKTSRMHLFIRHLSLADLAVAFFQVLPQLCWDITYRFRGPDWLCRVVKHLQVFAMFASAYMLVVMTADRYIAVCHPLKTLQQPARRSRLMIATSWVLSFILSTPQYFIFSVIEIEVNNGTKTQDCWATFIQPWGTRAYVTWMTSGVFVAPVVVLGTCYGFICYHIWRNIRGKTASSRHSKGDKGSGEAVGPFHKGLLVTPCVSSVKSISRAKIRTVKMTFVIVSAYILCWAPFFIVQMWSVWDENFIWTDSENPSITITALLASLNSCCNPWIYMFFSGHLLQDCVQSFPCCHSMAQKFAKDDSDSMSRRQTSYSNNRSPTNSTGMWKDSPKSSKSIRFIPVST

Chain of Vasopressin V2 receptor (Rattus norvegicus) (Q00788 whole entry): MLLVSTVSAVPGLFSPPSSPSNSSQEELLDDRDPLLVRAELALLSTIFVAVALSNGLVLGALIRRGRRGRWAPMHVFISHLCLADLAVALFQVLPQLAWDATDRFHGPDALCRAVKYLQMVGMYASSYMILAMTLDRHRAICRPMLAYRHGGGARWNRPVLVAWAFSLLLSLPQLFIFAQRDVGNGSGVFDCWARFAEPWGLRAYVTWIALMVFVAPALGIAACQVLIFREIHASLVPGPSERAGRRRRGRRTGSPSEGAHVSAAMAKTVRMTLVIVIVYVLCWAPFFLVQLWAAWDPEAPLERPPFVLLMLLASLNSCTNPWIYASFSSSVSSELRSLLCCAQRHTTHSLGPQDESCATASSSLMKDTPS
Chain of Vasopressin V2 receptor (Q00788 whole entry): as above
Chain of Vasopressin V1a receptor (Rattus norvegicus) (P30560 whole entry, looked up): as the sequence (P30560 whole entry) above

For `CC[C@H](C)[C@@H]1NC(=O)[C@@H](Cc2ccccc2)NC(=O)[C@@H]2CCCN2C(=O)[C@H](Cc2ccccc2)N(C)C(=O)[C@H](C)N(C)C(=O)[C@H]2CCCCN2C1=O`, the inhibition (in general, the relative decrease from the control value, in per cent) is 25% in experiment [1] and 34% in experiment [2].
`CC[C@H](C)[C@@H]1NC(=O)[C@@H](Cc2ccccc2)NC(=O)[C@@H]2CCCN2C(=O)[C@@H](Cc2ccccc2)NC(=O)[C@@H]2CCCCN2C(=O)[C@H]2CCCCN2C1=O` (cyclo(I[dPip][Pip][dF]P[dF])): the values for the concentration for half-maximal inhibition (IC50) on Oxytocin receptor and on Vasopressin V2 receptor were 340 nM and 11000 nM, respectively.
Consider `CC[C@H](C)[C@@H]1NC(=O)[C@@H](Cc2ccccc2)NC(=O)[C@@H]2CCCN2C(=O)[C@@H](Cc2ccccc2)N(C)C(=O)[C@H](Cc2c[nH]cn2)NC(=O)[C@H]2CCCCN2C1=O`, for which the inhibition in experiment [1] amounted to 66%; in experiment [2], 65%.
For `C[C@@H]1NC(=O)[C@@H](Cc2ccccc2)NC(=O)[C@@H]2CCCN2C(=O)[C@@H](Cc2ccccc2)N(C)C(=O)[C@@H]2CCCCN2C(=O)[C@H]2CCCCN2C1=O`, the IC50 (commonly the concentration that gives 50% inhibition) at Oxytocin receptor is 30000 nM.
In the case of `CC[C@H](C)[C@@H]1NC(=O)[C@@H](Cc2ccccc2)NC(=O)[C@@H]2CCCCN2C(=O)[C@@H](Cc2ccccc2)N(C)C(=O)[C@@H]2CCCCN2C(=O)[C@H]2CCCCN2C1=O`, the inhibition is 51% in experiment [1] and 48% in experiment [2].
With `CCCC[C@@H]1NC(=O)[C@@H](Cc2c[nH]c3ccccc23)NC(=O)[C@@H]2CCCN2C(=O)[C@@H](Cc2c[nH]cn2)NC(=O)[C@@H]2CCCCN2C(=O)[C@H]2CCCCN2C1=O` (cyclo([Nle][dPip][Pip][dH]P[dW])), the IC50 on Vasopressin V2 receptor came out at 1700 nM; on Vasopressin V1a receptor it was 1300 nM.
On to `CC[C@H](C)[C@@H]1NC(=O)[C@@H](Cc2ccccc2)NC(=O)[C@@H]2CCCN2C(=O)[C@@H](Cc2ccccc2)N(C)C(=O)[C@@H]2CCCN2C(=O)[C@H]2CCCCN2C1=O`, for which the inhibition is 33% in experiment [1] and 39% in experiment [2]. This compound yielded an IC50 at Oxytocin receptor of 670 nM.
Consider `CC[C@H](C)[C@@H]1NC(=O)[C@@H](Cc2ccccc2)NC(=O)[C@@H]2CCCN2C(=O)[C@@H](Cc2ccccc2)N(C)C(=O)[C@@H]2CCCN2C(=O)[C@H]2CCCN2C1=O` (cyclo([dNMeF]P[dF]I[dP]P)), for which the half-inhibitory concentration (IC50) at Vasopressin V2 receptor worked out at 81000 nM; at Vasopressin V1a receptor, 3300 nM.
For the compound `CC[C@H](C)[C@@H]1NC(=O)[C@@H](Cc2ccccc2)NC(=O)[C@@H]2CCCN2C(=O)[C@@H](Cc2ccccc2)N(C)C(=O)[C@@H]2CCCCN2C(=O)[C@H]2CCCCN2C1=O` (cyclo(I[dPip][Pip][dNMeF]P[dF])), the figures for the IC50 at Oxytocin receptor, at Vasopressin V2 receptor and on Vasopressin V1a receptor were 200 nM, 3800 nM and 3200 nM, respectively.
For `CC[C@H](C)[C@@H]1NC(=O)[C@@H](Cc2c[nH]c3ccccc23)NC(=O)[C@@H]2CCCN2C(=O)[C@@H](Cc2c[nH]cn2)N(C)C(=O)[C@@H]2CCCCN2C(=O)[C@H]2CCCCN2C1=O` (cyclo(I[dPip][Pip][dNMeH]P[dW])), the 50% inhibitory concentration (IC50) on Vasopressin V1a receptor came out at 14000 nM.
Regarding `CC(C)C[C@@H]1NC(=O)[C@@H](Cc2c[nH]c3ccccc23)NC(=O)[C@@H]2CCCN2C(=O)[C@@H](Cc2c[nH]cn2)NC(=O)[C@@H]2CCCCN2C(=O)[C@H]2CCCCN2C1=O` (cyclo(L[dPip][Pip][dH]P[dW])), the half-inhibitory concentration (IC50) came to 11000 nM at Vasopressin V2 receptor and 3000 nM at Vasopressin V1a receptor.
As to `CC[C@H](C)[C@@H]1NC(=O)[C@@H](Cc2ccccc2)NC(=O)[C@@H]2CCCN2C(=O)[C@@H](C)N(C)C(=O)[C@@H]2CCCCN2C(=O)[C@H]2CCCCN2C1=O` (cyclo(I[dPip][Pip][dNMeA]P[dF])), the inhibition in experiment [1] came out at 20%; in experiment [2] it was 12%. The compound also had an IC50 at Oxytocin receptor of 1200 nM.
As to `CC[C@H](C)[C@@H]1NC(=O)[C@@H](Cc2cn(C)c3ccccc23)NC(=O)[C@@H]2CCCN2C(=O)[C@@H](Cc2cnc[nH]2)NC(=O)[C@@H]2CCCCN2C(=O)[C@H]2CCCCN2C1=O`, the values for the IC50 at Oxytocin receptor, at Vasopressin V2 receptor and on Vasopressin V1a receptor were 10 nM, 1300 nM and 3700 nM, respectively.
Turning to `CC[C@H](C)[C@@H]1NC(=O)[C@@H](Cc2ccccc2)NC(=O)[C@@H]2CCCN2C(=O)[C@@H](Cc2ccccc2)N(C)C(=O)[C@@H]2CCCCN2C(=O)[C@@H](C)N(C)C1=O` (cyclo(I[dNMeA][Pip][dNMeF]P[dF])), the inhibition in experiment [1] worked out at 20%; in experiment [2] it was 17%. In addition, on Oxytocin receptor, the IC50 worked out at 1500 nM.
With `CC[C@H](C)[C@@H]1NC(=O)[C@@H](Cc2ccccc2)NC(=O)[C@@H]2CCCN2C(=O)[C@@H](CCCCN)NC(=O)[C@@H]2CCCCN2C(=O)[C@H]2CCCCN2C1=O` (cyclo(I[dPip][Pip][dK]P[dF])), the figures for the IC50 on Oxytocin receptor, on Vasopressin V2 receptor and on Vasopressin V1a receptor were 410 nM, 7400 nM and 1100 nM, respectively.
In the case of `CC[C@H](C)[C@H]1C(=O)N2CCCC[C@@H]2C(=O)N2CCCC[C@H]2C(=O)N(C)[C@H](Cc2ccccc2)C(=O)N2CCC[C@H]2C(=O)N[C@H](Cc2ccccc2)C(=O)N1C`, the values for the inhibition in experiment [1] and in experiment [2] were 18% and 19%, respectively. Besides, the IC50 at Oxytocin receptor stood at 25000 nM.
`CC[C@H](C)[C@@H]1NC(=O)[C@@H](Cc2ccccc2)NC(=O)[C@@H]2CCCN2C(=O)[C@@H](Cc2ccccc2)N(C)C(=O)[C@H](CCCCN)NC(=O)[C@H]2CCCCN2C1=O`: the IC50 was 160 nM at Oxytocin receptor, 1400 nM at Vasopressin V2 receptor and 2000 nM on Vasopressin V1a receptor.
In the case of `CC[C@H](C)[C@@H]1NC(=O)[C@@H](Cc2ccccc2)NC(=O)[C@@H]2CCCN2C(=O)[C@@H](Cc2ccccc2)N(C)C(=O)[C@@H]2CCCCN2C(=O)[C@H]2CCCN2C1=O` (cyclo(I[dP][Pip][dNMeF]P[dF])), the inhibition in experiment [1] is 23%; in experiment [2] it was 43%. This compound also gave an IC50 on Oxytocin receptor of 540 nM.
As for `CC[C@H](C)[C@@H]1NC(=O)[C@@H](Cc2c[nH]c3ccccc23)NC(=O)[C@@H]2CCCN2C(=O)[C@@H](Cc2ccccc2)N(C)C(=O)[C@H](CCCN)NC(=O)[C@H]2CCC=NN2C1=O` (cyclo(I[dPiz(1,6-dehydro)][Orn][dNMeF]P[dW])), the IC50 at Oxytocin receptor stood at 25 nM.
Turning to `CC[C@H](C)[C@@H]1NC(=O)[C@@H](Cc2ccccc2)NC(=O)[C@@H]2CCCN2C(=O)[C@@H](Cc2ccccc2)N(C)C(=O)[C@@H]2CCCCN2C(=O)[C@H]2CCC=NN2C1=O` (cyclo(I[dPiz(1,6-dehydro)][Pip][dNMeF]P[dF])), the IC50 on Oxytocin receptor worked out at 15 nM; at Vasopressin V2 receptor, 1200 nM; at Vasopressin V1a receptor, 3500 nM.
As for `CC[C@H](C)[C@@H]1NC(=O)[C@@H](Cc2cccc3ccccc23)NC(=O)[C@@H]2CCCN2C(=O)[C@@H](Cc2cnc[nH]2)NC(=O)[C@@H]2CCCCN2C(=O)[C@H]2CCCCN2C1=O` (cyclo(I[dPip][Pip][dH]P[d1Nal])), the IC50 at Oxytocin receptor was 8.3 nM; at Vasopressin V2 receptor, 720 nM; on Vasopressin V1a receptor, 750 nM.
For the compound `C=CCN1C(=O)[C@@H]2CCCCN2C(=O)[C@H]2CCCCN2C(=O)[C@H]([C@@H](C)CC)NC(=O)[C@@H](Cc2ccccc2)NC(=O)[C@@H]2CCCN2C(=O)[C@H]1Cc1ccccc1` (cyclo(I[dPip][Pip][X1]P[dF])), the inhibition in experiment [1] came out at 45%; in experiment [2], 77%. For the same compound, the IC50 on Oxytocin receptor is 190 nM.
Turning to `CC[C@H](C)[C@@H]1NC(=O)[C@@H](Cc2ccccc2)NC(=O)[C@@H]2CCCN2C(=O)[C@@H](Cc2ccccc2)N(C)C(=O)[C@H](Cc2cnc[nH]2)NC(=O)[C@H]2CCCCN2C1=O`, the IC50 on Oxytocin receptor stood at 220 nM.
Consider `CC[C@H](C)[C@@H]1NC(=O)[C@@H](Cc2cccc3ccccc23)NC(=O)[C@@H]2CCCN2C(=O)[C@@H](Cc2ccccc2)N(C)C(=O)[C@H](CCCCN)NC(=O)[C@H]2CCCCN2C1=O`, for which the IC50 on Oxytocin receptor came to 45 nM; on Vasopressin V2 receptor it was 150 nM; on Vasopressin V1a receptor, 510 nM.
`CC[C@H](C)[C@@H]1NC(=O)[C@@H](Cc2ccccc2)NC(=O)[C@@H]2CCCN2C(=O)[C@@H](Cc2ccccc2)N(C)C(=O)[C@@H]2CCC=NN2C(=O)[C@H]2CCC=NN2C1=O` (cyclo(I[dPiz(1,6-dehydro)][Piz(1,6-dehydro)][dNMeF]P[dF])) returned an IC50 on Oxytocin receptor of 18 nM.
On to `C[C@@H]1NC(=O)[C@@H](Cc2ccccc2)NC(=O)[C@@H]2CCCN2C(=O)[C@H](Cc2ccccc2)N(C)C(=O)[C@@H]2CCCCN2C(=O)[C@H]2CCCCN2C1=O`, for which the inhibition in experiment [1] came to 3%; in experiment [2] it was 2%.
Turning to `CC[C@H](C)[C@@H]1NC(=O)[C@@H](Cc2ccccc2)NC(=O)[C@@H]2CCCN2C(=O)[C@@H](Cc2ccccc2)N(C)C(=O)[C@H](CC(=O)O)NC(=O)[C@H]2CCCCN2C1=O` (cyclo(D[dNMeF]P[dF]I[dPip])), the inhibition was 0% in experiment [1] and 12% in experiment [2]. Moreover, the IC50 at Oxytocin receptor is 1500 nM.
Consider `CC[C@H](C)[C@@H]1NC(=O)[C@@H](Cc2ccccc2)NC(=O)[C@@H]2CCCN2C(=O)[C@@H](Cc2ccccc2)N(C)C(=O)[C@H](C)N(C)C(=O)[C@H]2CCCCN2C1=O`, for which, at Oxytocin receptor, the IC50 worked out at 2700 nM.
Take `CC[C@H](C)[C@@H]1NC(=O)[C@@H](Cc2ccccc2)NC(=O)[C@H](C)N(C)C(=O)[C@@H](Cc2ccccc2)N(C)C(=O)[C@@H]2CCCCN2C(=O)[C@H]2CCCCN2C1=O` (cyclo(I[dPip][Pip][dNMeF][NMeA][dF])): the results for the inhibition in experiment [1] and in experiment [2] were 34% and 37%, respectively. The compound also yielded a concentration for half-maximal inhibition (IC50) on Oxytocin receptor of 930 nM.
